Source: patent publication US20220096592A1, “PIC1 VARIANTS WITH IMPROVED SOLUBILITY AND METHODS OF USING THE SAME” (priority 2019, published 2022)
Entries after “also recorded” stand apart in the source; their conditions may differ.

Experiments:
[1] = water, without PEGylation or DMSO
Protocol: Sarcosine variants and PEG were dissolved in water and the pH was adjusted with NaOH. PA was dissolved in DMSO and then brought up to the final concentration with water resulting in 30% DMSO and pH adjusted. Antibody sensitized sheep erythrocytes (EA), purified C1q and factor B-depleted human sera were purchased from Complement Technology (Tyler, Tex.). Purified myeloperoxidase was purchased from Lee BioSolutions (Maryland Heights, Mo.) and tetramethylbenzidine (TMB) and PicoGreen were purchased from Thermo Fisher (Waltham Mass.).
(PA), peptide derivatives were synthesized with sarcosine residues substituted at all 15 positions. Also included is a peptide in which the vicinal cysteines at positions 9 and 10 (C9,C10) were replaced with a single sarcosine residue.

[2] = system: purified human neutrophils; experiment: NETosis assay (immune complex activated serum and H2O2; PicoGreen free DNA, fluorescence microscopy); format: cell-based; settings: neutrophils stimulated with immune complexes, FIG. 5B third row
Protocol: NETosis assays with immune complexes were performed as previously described. Briefly, normal human serum was stimulated with ovalbumin-antiovalbumin immune complexes in GVBS^++ for 30 minutes at 37° C. This mixture along with 0.05% H2O2 was then added to purified human neutrophils resuspended in RPMI with or without sarcosine variants (2 mM), allowing NETosis to occur. Quantitation of free DNA released from the neutrophils was performed using PicoGreen. Slides were stained with DAPI (Southern Biotech, Birmingham, Ala.). The following antibodies were used to visualize formation of NETs: • (i) mouse anti-elastase (Invitrogen, Carlsbad, Calif.) as a primary antibody with the secondary goat anti-mouse antibody Alexa Fluor 568 (Novus Biologicals, Centennial, Colo.) and • (ii) rabbit anti-histone H3 (Abcam, Cambridge Mass.) with goat anti-rabbit antibody Alexa Fluor 488 (Novus Biologicals). Fluorescence microscopy using an Olympus BX53 microscope was performed to visualize NETs.
The peptide variants were tested for inhibition of NETosis. In this assay, purified human neutrophils were stimulated with normal human serum activated with ovalbumin-antiovalbumin immune complexes and hydrogen peroxide. Free DNA expressed from the neutrophils was then measured in a PicoGreen assay. […] Direct visualization of neutrophil extracellular trap (NET) formation by fluorescence microscopy was used to confirm the above NETosis results with the 18 variant. Human neutrophils were purified and stimulated on glass slides then stained with DAPI to visualize DNA and probed with anti-neutrophil elastase (αNE) and anti-histone H3 (αhistone), as previously described. […] Fluorescence microscopy visualization of NETs confirmed the findings seen for quantitative measurements of free DNA.

C5a generation = experiment: C5a ELISA of supernatant, antibody-sensitized human platelets in normal human serum; format: cell-based
Protocol: (§1) For experiments sensitizing platelets with human anti-platelet antibody, purified platelets were treated with 4% ITP sera for 15 minutes at 30° C. before adding 2% normal human complement sufficient sera and incubating for 30 minutes at 37° C. For samples containing PIC1, sera and PIC1 were pre-incubated for 5 minutes before combining with sensitized platelets. Samples were then spun and supernatant was removed for C5a analysis by ELISA. A C5a ELISA kit (R&D Systems) was used per manufacturer's instructions. The cells were washed once with GVBS^−− and once with water to lyse the platelets. The remaining cell pellet was treated with 25 mM methylamine for 1 hour at 37° C., spun, and the supernatant was analyzed for iC3b by ELISA. The ELISA for iC3b was performed as previously described, utilizing a goat anti-human C3 antibody (Complement Technology, Tyler, Tex.) for capture, a mouse anti-human iC3b antibody (Quidel, San Diego, Calif.) for probing, and a goat anti-mouse HRP (Sigma-Aldrich, St Louis, Mo.) for detection.
Plasma recovered from these experiments was then assayed for the pro-inflammatory anaphylatoxin C5a by ELISA.

human platelets = experiment: viability of antibody-sensitized human platelets in normal human serum (Presto Blue); format: cell-based
Protocol: For in vitro experiments, platelets were stained with PrestoBlue Cell Viability Reagent as per manufacturer's recommendations. For in vivo experiments, platelets were stained with PKH26 Red Fluorescent Cell Dye as per manufacturer's recommendations.
as §1
Cell viability of the platelets was measured by utilizing the vital dye, Presto Blue. […] These effects can be largely reversed in the presence of a classical complement pathway inhibitor.

[3] = system: complement-mediated hemolysis of the patient's erythrocytes; experiment: hemolytic complement assay with plasma and erythrocytes of a DHTR patient; format: cell-based, human; settings: complement permissive buffer GVBS++, increasing concentrations, FIG. 13; listed as PIC1
Protocol: Discarded de-identified blood was obtained from routine medical management blood draws from the patient prior to treatment with eculizumab. […] Complement permissive GVBS^++ buffer is veronal-buffered saline with 0.1% gelatin, 0.15 mM CaCl2, and 1 mM MgCl2 [11]. Complement inhibitory buffer GVBS^−− is a veronal-buffered saline with 0.1% gelatin and 10 mM EDTA. Approximately 5×10^7 washed erythrocytes were incubated with 20% plasma in a reaction volume of 0.15 ml for 1 hour at 37° C.
Erythrocytes were sedimented by centrifugation at 1,500×g for 5 minutes and the supernatant was then recovered. The supernatant was measured on a Bio Tek Synergy HT plate reader spectrophotometer for absorption at 412 nm. Hemolysis was measured by quantitation of free hemoglobin on the spectrophotometer at 412 nm.

complement activation = settings: administered intravascularly into rats, by 30 seconds; cited from earlier work

## H2N-IALILEPICCQERAA-dPEG24 (H-IALILEPICCQERAA-dPEG24; cysteine pairing not given here) [PA-dPEG24, 15-amino acid PEGylated peptide, 24 PEG moieties at the C-terminus]
[1]
  H2O Soluble: No
[2]
  NET formation by fluorescence microscopy: dramatic reduction in NETs
C5a generation; 1.5 mM, P=0.028
  inhibition of C5a generation, in words: Significant inhibition of C5a generation
C5a generation; 3.0 mM, P=0.006
  decrease of C5a generation: 44%
C5a generation; sensitizing antibody and NHS, increasing concentrations, FIG. 6B
  C5a generation, dose response: dose-dependently inhibited C5a generation
Human platelets; 1.5 mM, P=0.031
  increase in platelet viability, in words: Significant increases in platelet viability
Human platelets; 3.0 mM, P=0.003
  increase in platelet viability: 53%
Human platelets; sensitizing antibody and NHS, increasing concentrations, FIG. 6C
  platelet viability, dose response: Platelet viability dose-dependently increased
[3]
  hemolysis of patient erythrocytes by patient plasma: statistically significant dose-dependent decrease of hemolysis; also recorded: inhibited hemolysis to the background signal; also recorded: completely blocked at higher doses
Complement activation
  systemic inhibition of complement activation: > 90%
